Source: ChEMBL document CHEMBL1201862, “PubChem BioAssay data set” (2004)
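Each compound was tested at five concentrations against cells in 96-well plates for 48 hours. GI50: concentration for 50% inhibition of growth.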 Active and inactive are the calls of the source. Rule as the data show it: active = GI50 up to about 1.1 µM and inactive = higher. Where a SMILES comes first, the peptide text is derived from it. The star is where a group is joined. Boc = CC(C)(C)OC(=O)*

Tests used:
Test in all cases: NCI-60 cell line screen, 48 h
[1] = system: A498
[2] = system: MOLT-4
[3] = system: NCI-H226
[4] = system: OVCAR-8
[5] = system: SNB-19
[6] = system: EKVX
[7] = system: HOP-62
[8] = system: NCI-H23
[9] = system: RPMI-8226
[10] = system: PC-3
[11] = system: NCI/ADR-RES
[12] = system: SNB-75
[13] = system: MDA-MB-231
[14] = system: HT-29
[15] = system: KM12
[16] = system: CCRF-CEM
[17] = system: SW-620
[18] = system: A549
[19] = system: BT-549
[20] = system: HCC 2998

Row | SMILES | GI50 [1] | GI50 [2] | GI50 [3] | GI50 [4] | GI50 [5] | GI50 [6] | GI50 [7] | GI50 [8] | GI50 [9] | GI50 [10] | GI50 [11] | GI50 [12] | GI50 [13] | GI50 [14] | GI50 [15] | GI50 [16] | GI50 [17] | GI50 [18] | GI50 [19] | GI50 [20]
1 | CCOC(=O)C1(C(=O)OCC)C[C@H](C)[C@](C)(O)C1 | > 100 µM (inactive) | > 100 µM (inactive) | > 100 µM (inactive) | > 100 µM (inactive) | > 100 µM (inactive) | > 100 µM (inactive) | > 100 µM (inactive) | > 100 µM (inactive) | > 100 µM (inactive) | > 100 µM (inactive) | > 100 µM (inactive) | > 100 µM (inactive) | > 100 µM (inactive) | > 100 µM (inactive) | > 100 µM (inactive) | > 100 µM (inactive) | > 100 µM (inactive) | > 100 µM (inactive) |  | 
2 | O=C1CC(C(OCc2ccccc2)C(OCc2ccccc2)C(OCc2ccccc2)C(COCc2ccccc2)OCc2ccccc2)CC(=O)N1 (stereo not given) | > 100 µM (inactive) | 59 µM (inactive) |  | > 100 µM (inactive) | > 100 µM (inactive) | > 100 µM (inactive) | > 100 µM (inactive) | > 100 µM (inactive) | > 100 µM (inactive) | > 100 µM (inactive) | > 100 µM (inactive) | > 100 µM (inactive) |  | > 100 µM (inactive) |  | > 100 µM (inactive) | > 100 µM (inactive) | > 100 µM (inactive) | > 100 µM (inactive) | > 100 µM (inactive)
3 | CC(C)CC(Nc1c(O)ccc2ccccc12)C(=O)O (stereo not given) | 23.3 µM (inactive) | 33 µM (inactive) | 20 µM (inactive) |  | 37.6 µM (inactive) | 17.3 µM (inactive) | 83.9 µM (inactive) | 19.5 µM (inactive) | 28.2 µM (inactive) |  | 37.8 µM (inactive) | 32.3 µM (inactive) | 25.4 µM (inactive) | 81.8 µM (inactive) | 30.6 µM (inactive) | 0.959 µM (active) | 34.4 µM (inactive) | > 100 µM (inactive) | 19.5 µM (inactive) | 25.2 µM (inactive)
4 | COC(=O)C1C2C=CC(C2)N1S(=O)(=O)c1ccccc1 (stereo not given) | > 100 µM (inactive) | > 100 µM (inactive) |  | > 100 µM (inactive) | > 100 µM (inactive) |  | > 100 µM (inactive) | > 100 µM (inactive) | > 100 µM (inactive) | > 100 µM (inactive) | > 100 µM (inactive) |  | > 100 µM (inactive) | > 100 µM (inactive) | > 100 µM (inactive) |  | > 100 µM (inactive) | > 100 µM (inactive) |  | 
5 | O=C1NC(Nc2cccc(Cl)c2)=N/C1=C\c1ccc(Cl)c(Cl)c1 | 4.37 µM (inactive) | 3.37 µM (inactive) | 3.44 µM (inactive) | 4.34 µM (inactive) | 7.74 µM (inactive) | 3.67 µM (inactive) | 8.79 µM (inactive) | 3.44 µM (inactive) | 3.99 µM (inactive) | 3.66 µM (inactive) | 4.04 µM (inactive) | 13.3 µM (inactive) |  | 6.73 µM (inactive) | 3.37 µM (inactive) | 3.45 µM (inactive) | 3.68 µM (inactive) | 3.8 µM (inactive) | 12.4 µM (inactive) | 2.28 µM (inactive)
6 | CNC(=O)CNC(=O)C(NC(=O)CNC(=O)C1CCCN1C(=O)C(C)NC(=O)C(NC(=O)OC(C)(C)C)C(C)C)C(C)C (stereo not given) (Boc-VAPGVG-NHMe; configuration not given here) | > 100 µM (inactive) | > 100 µM (inactive) |  | > 100 µM (inactive) | > 100 µM (inactive) | > 100 µM (inactive) | > 100 µM (inactive) | > 100 µM (inactive) | > 100 µM (inactive) | > 100 µM (inactive) | > 100 µM (inactive) | > 100 µM (inactive) | > 100 µM (inactive) | > 100 µM (inactive) |  | > 100 µM (inactive) | > 100 µM (inactive) |  |  | > 100 µM (inactive)
7 | CC(C)=CCN1CC(C)C(=O)Nc2ccccc21 (stereo not given) | > 100 µM (inactive) | > 100 µM (inactive) | 65.2 µM (inactive) | 78.9 µM (inactive) | > 100 µM (inactive) | > 100 µM (inactive) | > 100 µM (inactive) | > 100 µM (inactive) | > 100 µM (inactive) | > 100 µM (inactive) |  |  | > 100 µM (inactive) | > 100 µM (inactive) | > 100 µM (inactive) | > 100 µM (inactive) | > 100 µM (inactive) | > 100 µM (inactive) | > 100 µM (inactive) | > 100 µM (inactive)
8 | CO/N=C(\C(=O)[N-]n1cn[n+](CC(=O)OC(C)(C)C)c1)c1csc(NC(c2ccccc2)(c2ccccc2)c2ccccc2)n1 | > 10 µM (inactive) | > 10 µM (inactive) | > 10 µM (inactive) | > 10 µM (inactive) | > 10 µM (inactive) | > 10 µM (inactive) | > 10 µM (inactive) | > 10 µM (inactive) | > 10 µM (inactive) | > 10 µM (inactive) | > 10 µM (inactive) | > 10 µM (inactive) |  | > 10 µM (inactive) | > 10 µM (inactive) | > 10 µM (inactive) | > 10 µM (inactive) | > 10 µM (inactive) | > 10 µM (inactive) | > 10 µM (inactive)
9 | CSc1ncnc2c1cnn2CCCCO | > 100 µM (inactive) | > 100 µM (inactive) | > 100 µM (inactive) |  | > 100 µM (inactive) | > 100 µM (inactive) | > 100 µM (inactive) | > 100 µM (inactive) | > 100 µM (inactive) | > 100 µM (inactive) |  |  | > 100 µM (inactive) | > 100 µM (inactive) | > 100 µM (inactive) | > 100 µM (inactive) | > 100 µM (inactive) | > 100 µM (inactive) | > 100 µM (inactive) | > 100 µM (inactive)
10 | Cc1ccc(/C=C2\CCCc3ccccc3C2=O)cc1 |  | 17.7 µM (inactive) | 6.46 µM (inactive) | 22.4 µM (inactive) | 19.5 µM (inactive) | 12 µM (inactive) | 9.2 µM (inactive) | 9.2 µM (inactive) | 16.3 µM (inactive) | 14.7 µM (inactive) | 8.67 µM (inactive) | 21.2 µM (inactive) | 9.62 µM (inactive) | 3.18 µM (inactive) | 4.11 µM (inactive) | 15.1 µM (inactive) | 22.9 µM (inactive) | 5.86 µM (inactive) | 10.1 µM (inactive) | 
11 | CNC(=O)CNC(=O)C(NC(=O)CNC(=O)C1CCCN1C(=O)C(C)NC(=O)C(NC(C)=O)C(C)C)C(C)C (stereo not given) (Ac-VAPGVG-NHMe; configuration not given here) | > 100 µM (inactive) | > 100 µM (inactive) |  | > 100 µM (inactive) | > 100 µM (inactive) | > 100 µM (inactive) | > 100 µM (inactive) | > 100 µM (inactive) | > 100 µM (inactive) | > 100 µM (inactive) | > 100 µM (inactive) |  | > 100 µM (inactive) | > 100 µM (inactive) |  | > 100 µM (inactive) | > 100 µM (inactive) |  |  | > 100 µM (inactive)
12 | O=c1c(Cl)nsnc1Cl |  | 1.9 µM (inactive) | 22.9 µM (inactive) | 36.1 µM (inactive) | 23.4 µM (inactive) | 25.6 µM (inactive) | 18.7 µM (inactive) | 23.3 µM (inactive) | 1.54 µM (inactive) | 16.2 µM (inactive) | 40.1 µM (inactive) | 22.6 µM (inactive) | 19.3 µM (inactive) | 24.2 µM (inactive) | > 38.7 µM (inactive) | 0.984 µM (active) | 3.43 µM (inactive) | 26.3 µM (inactive) |  | 19.4 µM (inactive)
13 | COc1cc2c(c(OC)c1)C(C)=NC(C)C2 (stereo not given) | > 100 µM (inactive) | > 100 µM (inactive) | > 100 µM (inactive) | > 100 µM (inactive) | > 100 µM (inactive) | > 100 µM (inactive) | > 100 µM (inactive) | > 100 µM (inactive) | > 100 µM (inactive) | > 100 µM (inactive) |  |  | > 100 µM (inactive) | > 100 µM (inactive) | > 100 µM (inactive) | > 100 µM (inactive) | > 100 µM (inactive) | > 100 µM (inactive) | > 100 µM (inactive) | > 100 µM (inactive)
14 | Nc1cc(N2CCOCC2)nc(=O)n1-c1ccc(Cl)cc1 | > 100 µM (inactive) | > 100 µM (inactive) | > 100 µM (inactive) | > 100 µM (inactive) | > 100 µM (inactive) | > 100 µM (inactive) | > 100 µM (inactive) | > 100 µM (inactive) | > 100 µM (inactive) | > 100 µM (inactive) | > 100 µM (inactive) | > 100 µM (inactive) |  | > 100 µM (inactive) | > 100 µM (inactive) | > 100 µM (inactive) | > 100 µM (inactive) | > 100 µM (inactive) | > 100 µM (inactive) | > 100 µM (inactive)
15 | CC(=O)OCC1OC(n2c(C)c(/N=N/c3ccccc3)c(C)c(C#N)c2=S)C(OC(C)=O)C(OC(C)=O)C1OC(C)=O (stereo not given) |  | > 100 µM (inactive) |  |  | 24.2 µM (inactive) |  | 14.4 µM (inactive) | > 100 µM (inactive) | > 100 µM (inactive) | > 100 µM (inactive) | 55.3 µM (inactive) | 1.85 µM (inactive) | 20.6 µM (inactive) | > 100 µM (inactive) | > 100 µM (inactive) | > 100 µM (inactive) | > 100 µM (inactive) | 57.3 µM (inactive) | 49.3 µM (inactive) | > 100 µM (inactive)
